# Data: ChEMBL document CHEMBL1146559, “Dihydrolindbladiones, three new naphthoquinone pigments from a myxomycete Lindbladia tubulina” (J Nat Prod, 2003)
# Tests used:
# Type in all cases: functional, cell-based
# P388 [1] = test: Cytotoxicity against vincristine-resistant mouse P388 cells
# P388 [2] = test: Cytotoxicity against vincristine-resistant mouse P388 cells in presence of vincristine
# P388 [3] = test: Cytotoxicity against vincristine-sensitive mouse P388 cells
compound,measurement,setting,value
CCCC(=O)CCC1=C(O)C(=O)c2cc(OC)c(OC)c(O)c2C1=O,IC50,P388 [1],> 50 µg/mL
same,IC50,P388 [2],> 50 µg/mL
same,IC50,P388 [3],> 50 µg/mL
CCCC(=O)CCC1=C(O)C(=O)c2cc(O)c(O)c(O)c2C1=O,IC50,P388 [1],14 µg/mL
same,IC50,P388 [2],12.6 µg/mL
same,IC50,P388 [3],12.1 µg/mL
CCCC(=O)CCC1=C(O)C(=O)c2cc(O)c(OC)c(O)c2C1=O,IC50,P388 [1],> 50 µg/mL
same,IC50,P388 [2],13.8 µg/mL
same,IC50,P388 [3],> 50 µg/mL
